Patent US5744452A, “γ-L-glutamyl containing immunomodulator compounds and methods therewith” (Wei; Edward T., priority 1995, dated 1998)
Where a SMILES comes first, the peptide text is derived from it. Where no end group is shown, it is not given here.

Columns and labels:
murine bone marrow cells = assay: .THETA.-antigen expression on murine bone marrow cells (T-lymphocyte precursor differentiation); assay type: cell-based, CBA strain mice; parameters: .THETA.-antigen expression on murine bone marrow cells: unit not given here; settings: for immunostimulatory activity in the in vitro assays used: .THETA.-antigen expression and IL-2 production assays, compared with Bestim; for Percent of murine bone marrow cells expressing .THETA.-antigen: Table 5; for .THETA.-antigen expression on murine bone marrow cells: Table 1
Experimental: Differentiation of murine T-lymphocyte precursors was studied by the enumeration of cells expressing early surface differentiation marker .THETA.-antigen. Bone marrow cells were obtained from CBA strain mice killed by cervical dislocation. Cells were washed from femur bones with Hank's balanced salt solution and washed 3 times with RPM 1-1640 medium by centrifugation at 400 xg. Peptides at desired concentrations were incubated with 1×10^6 /ml of obtained cells for 1 hour at 37° C. Theta-antigen (".THETA.-antigen") expression has been determined with antibrain antibodies in a cytotoxicity assay using complement-dependent cell lysis (Terasaki et al., "Microdroplet Lymphocyte Cytotoxicity Test. Manual of Tissue Typing Techniques," National Institutes of Health, Bethesda, Md., pp 50-55, 1972). Dead cells were counted microscopically after eosin staining. […] Its activity was much stronger than that of the reference thymogen peptide.
Differentiation of murine T-lymphocyte precursors was studied by the enumeration of cells expressing early surface differentiation marker--.THETA.-antigen which is an analog of the Thy-1 lymphocyte differentiation antigen. Bone marrow cells were obtained from CBA strain mice killed by cervical dislocation. Cells were washed from femur bones with Hank's balanced salt solution and washed 3 times with RPMI-1640 medium by centrifugation at 400 xg. Peptides at desired concentrations were incubated with 1×10^6 /ml of obtained cells for 1 hour at 37° C. .THETA.-antigen expression were determined with antibrain antibodies in a cytotoxicity assay using complement-dependent cell lysis (Terasaki et al., 1972). Dead cells were counted microscopically after eosin staining untreated bone marrow cells served as a negative control, and murine thymocytes as a positive control.

murine spleen cells = assay: IL-2 production by Concanavalin A activated murine spleen cells (CTLL-2 cell assay); assay type: cell-based, CBA mice; settings: for interleukin-2 production by murine spleen cells: Table 6; for IL-2 production by murine spleen cells: Table 2
Experimental: Spleen cells from CBA mice were cultured in tissue culture plates at a 10^6 cells/ml in RPMI-1640 medium supplemented with 10% fetal calf serum, 2 mM L-glutamine, and 80 μg/ml of Gentamycin. 1 μg/ml of Concanavalin A was used to activate basal IL-2 production from murine spleen lymphocytes. Bestim was added to cell cultures at the "0" time. After 36 hours supernatants were collected, centrifuged at 800 xg and IL-2 levels were measured in a CTLL-2 cell assay (Gillis et al., "T-cell Growth Factor: Parameters of Production and Quantitative Assay for Activity," J. Immunol., 120: 2027-2032, 1978). […] However, due to the variations in the method for IL-2 measurements clear dose-response comparisons could not be achieved.
IL-2 production studies have been performed using murine spleen lymphocytes activated with Concanavalin A. Spleen cells from CBA mice were cultured in a tissue culture plates at a 1×10^6 /ml concentration in RPMI-1640 medium supplemented with 10% fetal calf serum, 2 mM L-glutamine,80 μg/ml Gentamycin and 1 μg/ml Concanavalin A as an inducer of basal level IL-2 synthesis. Bestim at various concentration was added to cell cultures at the "0" time. After 36 hours supernatants were collected, centrifuged at 800 xg and used for IL-2 levels determination in a CTLL-2 cell assay (Gillis et al., 1978). IL-2-dependent CTLL-2 cells were grown in RPMI-1640 medium in the presence of 1-2 U/ml recombinant IL-2 as a growth factor. Before assay, cells were washed twice to remove IL-2 from the medium. After this wash tested supernatants were added and cells were incubated for 36 hours. IL-2-induced proliferation was assayed using a ^3 H-thymidine incorporation method.

[1] = cited from earlier work

| Compound | immunostimulatory activity in the in vitro assays used (murine bone marrow cells) | interleukin-2 production by murine spleen cells (murine spleen cells; peptide 0.001 μg/ml) | interleukin-2 production by murine spleen cells (murine spleen cells; peptide 0.01 μg/ml) | interleukin-2 production by murine spleen cells (murine spleen cells; peptide 0.1 μg/ml) | interleukin-2 production by murine spleen cells (murine spleen cells; peptide 1.0 μg/ml) | interleukin-2 production by murine spleen cells (murine spleen cells; peptide 10 μg/ml) | interleukin-2 production by murine spleen cells (murine spleen cells; peptide 100 μg/ml) | Percent of murine bone marrow cells expressing .THETA.-antigen (murine bone marrow cells; peptide 0.0001 μg/ml) | Percent of murine bone marrow cells expressing .THETA.-antigen (murine bone marrow cells; peptide 0.001 μg/ml) | Percent of murine bone marrow cells expressing .THETA.-antigen (murine bone marrow cells; peptide 0.01 μg/ml) | Percent of murine bone marrow cells expressing .THETA.-antigen (murine bone marrow cells; peptide 0.1 μg/ml) | Percent of murine bone marrow cells expressing .THETA.-antigen (murine bone marrow cells; peptide 1.0 μg/ml) | Percent of murine bone marrow cells expressing .THETA.-antigen (murine bone marrow cells; peptide 10 μg/ml) | Percent of murine bone marrow cells expressing .THETA.-antigen (murine bone marrow cells; peptide 100 μg/ml) | other results |
| --- | --- | --- | --- | --- | --- | --- | --- | --- | --- | --- | --- | --- | --- | --- | --- |
| CC(C)C[C@H](NC(=O)CC[C@H](N)C(=O)O)C(=O)O [γ-L-glutamyl-L-leucine] | little, if any, of the activities of Bestim |  |  |  |  |  |  |  |  |  |  |  |  |  |  |
| CN[C@@H](CCC(=O)N[C@@H](Cc1c[nH]c2ccccc12)C(=O)O)C(=O)O [B, N-methyl-γ-L-glutamyl-L-tryptophan] | active compounds were obtained | 134 ± 6 | 147 ± 8 | 152 ± 7 | 165 ± 6 | 171 ± 6 | 180 ± 11 | 20% | 29% | 34% | 40% | 47% | 51% | 53% |  |
| N[C@@H](CCC(=O)N1CCC[C@H]1C(=O)O)C(=O)O [γ-L-glutamyl-L-proline] | little, if any, of the activities of Bestim |  |  |  |  |  |  |  |  |  |  |  |  |  |  |
| γ-L-glutamyl-β-thienyl-D-alanyl-amide | active compounds were obtained | 146 ± 28 | 127 ± 26 | 128 ± 10 | 156 ± 11 | 172 ± 12 | 198 ± 7 | 20% | 23% | 20% | 27% | 28% | 36% | 40% |  |
| CC(=O)N[C@@H](CCC(=O)N[C@@H](Cc1c[nH]c2ccccc12)C(=O)O)C(=O)O [C, N-acetyl-γ-L-glutamyl-L-tryptophan] | active compounds were obtained | 128 ± 7 | 136 ± 7 | 149 ± 5 | 157 ± 9 | 170 ± 4 | 174 ± 8 | 19% | 28% | 35% | 40% | 45% | 46% | 50% |  |
| N[C@@H](CCC(=O)N[C@@H](Cc1c[nH]cn1)C(=O)O)C(=O)O [γ-L-glutamyl-L-histidine] | little, if any, of the activities of Bestim |  |  |  |  |  |  |  |  |  |  |  |  |  |  |
| N[C@@H](CCC(=O)O)C(=O)N[C@@H](Cc1c[nH]c2ccccc12)C(=O)O [Thymogen, L-glutamyl-L-tryptophan, reference compound] (H-Glu-Trp-OH) |  | 115 ± 8 | 132 ± 16 | 118 ± 11 | 128 ± 5 | 129 ± 10 | 136 ± 4 |  |  | 18% | 20% | 25% | 29% | 32% | IL-2 production by murine spleen cells (murine spleen cells; peptide 0.001 μg/ml, 36 hours): 114 ± 12; IL-2 production by murine spleen cells (murine spleen cells; peptide 0.01 μg/ml): 106 ± 10; IL-2 production by murine spleen cells (murine spleen cells; peptide 0.1 μg/ml): 106 ± 5; IL-2 production by murine spleen cells (murine spleen cells; peptide 1.0 μg/ml): 189 ± 13; IL-2 production by murine spleen cells (murine spleen cells; peptide 10 μg/ml): 80 ± 9; IL-2 production by murine spleen cells (murine spleen cells; peptide 100 μg/ml): 89 ± 3; .THETA.-antigen expression on murine bone marrow cells (murine bone marrow cells; peptide 0.0001 μg/ml, 1 hour 37° C.): 10 ± 0.5; .THETA.-antigen expression on murine bone marrow cells (murine bone marrow cells; peptide 0.001 μg/ml): 10 ± 1.2; .THETA.-antigen expression on murine bone marrow cells (murine bone marrow cells; peptide 0.01 μg/ml): 10 ± 0.5; .THETA.-antigen expression on murine bone marrow cells (murine bone marrow cells; peptide 0.1 μg/ml): 9 ± 1.0; .THETA.-antigen expression on murine bone marrow cells (murine bone marrow cells; peptide 1.0 μg/ml): 21 ± 0.8; .THETA.-antigen expression on murine bone marrow cells (murine bone marrow cells; peptide 10 μg/ml): 36 ± 2.8; .THETA.-antigen expression on murine bone marrow cells (murine bone marrow cells; peptide 100 μg/ml): 37 ± 2.2 |
| N[C@@H](CCC(=O)N[C@@H](Cc1ccccc1)C(=O)O)C(=O)O [γ-L-glutamyl-L-phenylalanine] | little, if any, of the activities of Bestim |  |  |  |  |  |  |  |  |  |  |  |  |  |  |
| CC[C@H](C)[C@H](NC(=O)CC[C@H](N)C(=O)O)C(=O)O [γ-L-glutamyl-L-isoleucine] | little, if any, of the activities of Bestim |  |  |  |  |  |  |  |  |  |  |  |  |  |  |
| N[C@@H](CCC(=O)N[C@@H](Cc1ccc(O)cc1)C(=O)O)C(=O)O [γ-L-glutamyl-L-tyrosine] | little, if any, of the activities of Bestim |  |  |  |  |  |  |  |  |  |  |  |  |  |  |
| N[C@@H](CCC(=O)N[C@@H](Cc1cn(C=O)c2ccccc12)C(=O)O)C(=O)O [D, γ-L-glutamyl-Nin -formyl-L-tryptophan] | active compounds were obtained | 114 ± 16 | 125 ± 3 | 153 ± 20 | 132 ± 8 | 144 ± 7 | 154 ± 5 | 24% | 25% | 30% | 36% | 42% | 48% | 53% |  |
| RKDVY [thymopentin, Arg-Lys-Asp-Val-Tyr] |  |  |  |  |  |  |  |  |  |  |  |  |  |  | half-life of breakdown in plasma [1]: 30 s |
